Like-named read-outs stand apart in the source and are kept apart here.
Assays:
children with ADHD [1] = experiment: Experiment 9: spatial WM task performance; format: in vivo, human; conditions: medicated vs unmedicated state; Dexedrine 20 mg, methylphenidate 10 mg
Source text: Experiment. Participants (a total of N=14, evenly divided between boys and girls) were referred to this study by local ADHD specialists. All participants had been diagnosed with the combined subtype of ADHD and were currently undergoing treatment with stimulant medication. Inclusion criteria include age 8-12 years, no mental retardation or neurological impairment, and full-scale IQ in the normal range as measured by the WISC-III (Wechsler, 1991). Participants were paid $10/hour for their participation, and were reimbursed for transportation costs. To increase motivation, the children were also rewarded with toys for good performance.
(§1) EEG and behavioral data were collected while the children performed low load and high load versions of the spatial WM task described above. […] Participants were tested on each of three occasions at the same time of day with a week between sessions. The first occasion was an orientation and training session in which subjects learned and practiced the tasks until performance reached asymptote. On the other occasions they were tested either while medicated or while abstaining from their normal dose of medication, with order of treatment counterbalanced across subjects. […]

children with ADHD [2] = experiment: Experiment 9: EEG and ERP; format: in vivo, human
Description: as §1, with “subjects. A scientist not otherwise involved with the study maintained the schedule of medication and no-medication days so that the research assistant performing the testing and preliminary analyses was blind to medication status. Data from the orientation day was not included in formal analyses. On the other days subjects first performed a single 23-trial block of each of the task conditions as a warm-up procedure. They then performed 4 more 23-trial blocks of each test version in randomized order.” for “subjects.”
In each session, multi-channel EEG was recorded from multiple “10-10 System” scalp locations (bandpass 0.1-100 Hz, 256 Hz sampling rate, linked mastoid reference) using a custom-made electrode cap. EOG was recorded from above and below the left eye, and from outer canthus of each eye. […]

healthy adults [3] = conditions: for Delta band power during resting conditions vs placebo / Theta band power during resting conditions vs placebo: both resting conditions; for Parietal alpha during task performance vs placebo: both task conditions
Description: (§2) Each drug session involved a baseline recording before drug administration. This was followed by four post-drug recording intervals, each lasting approximately 40 minutes. The first interval began 0.5 hrs after drug ingestion; the remaining three intervals occurred hourly thereafter. A scientist not otherwise involved in the experiment administered a Breathalyzer test at the beginning of each interval. Subjects also completed the Karolinska and Stanford sleepiness scales at each test period.
(§3) EEG was continuously recorded from 28 scalp electrodes using a digitally linked-mastoids reference. EOG was recorded from electrodes placed above and below one eye, and at the other canthi of each eye. Physiological signals were band-pass filtered at 0.01 to 100 Hz and sampled at 256 Hz. Automated artifact detection was followed by application of adaptive eye contaminant removal filters. The data were then visually inspected and data segments containing possible residual artifacts were eliminated from subsequent analyses. To examine the effects of the pharmacological interventions on individual EEG or behavioral variables, univariate repeated measures analyses of variance (ANOVAs) were used to compare data from each of the three treatment conditions with the placebo condition.
For neurophysiological features, average power was extracted from individual spectral bands at individual electrode sites, and then compared across test conditions. Decisions as to which parameters to extract from the spectra were based on the results of prior studies. For the task related EEG, past studies indicate that the frontal midline theta rhythm and the parietal alpha rhythm are sensitive to variations in the attentional demands of tasks, and, in particular, to the increase in difficulty in the working memory tasks employed here. For the EEG recorded under passive resting conditions, past studies indicate that activity in the delta and theta bands at posterior sites, and the alpha rhythm measured over the occipital region, are highly sensitive to variations in alertness and arousal. Each of the individual features was compared between placebo and each drug condition in univariate ANOVAs with repeated measures.

healthy adults [4] = experiment: Experiment 2: Neurocognitive Function Change (NCFC) index; format: in vivo, human; conditions: for NCFC index change from pre-medication baseline: 16 subjects, t1-t4
Source text: In this hybrid approach, multiple if-then rules gleaned from expert knowledge are applied to data to produce many low-level decisions about the direction of a change between two states. These local decisions are made with respect to single data parameters and the output of these rule-based functions serve as the inputs to a combinatorial network that in turn produces a single summary index of the direction and magnitude of change of neurocognitive function from a baseline state to a test state. As with a knowledgeable human expert assessing an ambiguous problem, decisions about the direction and severity of a change are based on consideration of a variety of pieces of diagnostic evidence, no one of which is central to the overall decision.
The output from the algorithm is the composite of three sub indices. The Behavioral Performance sub index incorporates measures of psychomotor speed and accuracy during task performance. The Neurophysiological Cognitive sub index incorporates attention-related EEG variables recorded during task performance (e.g. parameters of attention-related ERP components such as P300 and spectral measures of task load-related EEG modulation). The Neurophysiological Alertness sub index incorporates alertness-related physiological variables (e.g. measures of low frequency EEG activity and slow, rolling eye movement activity) recorded during passive resting conditions. The composite Neurocognitive Function Change (NCFC) index provides a summary score indicating direction and degree of change in neurocognitive status from a baseline state. In FIG. 6, each time point reflects change from the pre-medication baseline at t0 . […] In addition to the summary NCFC score presented in FIG. 6, consideration of the output of the sub indices can also provide specific information concerning the manner in which neurocognitive function has changed from baseline. […]

healthy adults [5] = experiment: Experiment 1: n-back working memory task performance; format: in vivo, human; conditions: for Accuracy in working memory task vs placebo / Reaction time in working memory task vs placebo: low load and high load tasks
Source text: Subjects performed two difficulty levels of a continuous performance, n-back working memory task, versions of which we have employed in many other EEG studies. In this task, subjects were required to compare the spatial location of the current stimulus with that of one presented previously. Briefly, single capital letter stimuli, drawn randomly from a set of twelve, were presented for 200 msec once every 4.5 sec on a computer monitor. At 1.3 sec prior to stimulus onset, a warning cue (a small “x”) appeared in the center of the screen for 200 msec. The letter stimulus occurred 1.3 sec after the cue in one of twelve possible locations on the monitor. The identity of the letter and its spatial position varied randomly from trial to trial. A small fixation dot was continuously present at the center of the screen. In a low load version of the task, subjects were required to match the position of the current stimulus with the position of the very first stimulus presented in the block. In a high load version of the task, subjects compared the current stimulus with that presented two trials previously. In this version subjects were required to remember two positions (and their sequential order) for the duration of two trials (nine seconds), and to update that information on each subsequent trial. In both versions of the task, stimuli were presented in blocks of 53 trials (the first three trials were warm-up trials and were discarded from analysis). Matches occurred randomly on 50% of the trials. Subjects were instructed to respond as quickly and as accurately as possible.
(§4) Each subject participated in […] sessions. The first session was a practice session in which subjects learned to perform the working memory tasks. After training, all subjects participated in 4 sessions, separated by at least one week. […] The four drug sessions were conducted according to a double blind, placebo-controlled, randomized, counterbalanced, crossover design. In each session, subjects consumed two pills (unmarked gelatin capsules) and a mixed drink. […] The pills were given with a 500 cc drink containing either 0.88 g/kg 95% ethanol mixed in fruit juice (adequate to produce an average peak blood alcohol content (BAC) of 0.08), or containing 495 cc of fruit juice with 5 cc of alcohol floated on top to mimic the smell and taste of the treatment drink.
as §2, §3

[6] = average
Description: as §4, §2

healthy adults [7] = experiment: Experiment 1: subjective sleepiness ratings (Karolinska Sleepiness Scale); format: in vivo, human; conditions: 50 mg diphenhydramine, 200-mg caffeine or 0.88 g/kg ethanol, four post-treatment intervals
Description: as §4, §2

healthy elderly subjects [8] = experiment: Experiment 8: resting and task-related EEG and ERP in elderly; format: in vivo, human
healthy elderly subjects [9] = experiment: Experiment 8: subjective sleepiness in elderly (Karolinska sleepiness scale)
healthy elderly subjects [10] = experiment: Experiment 8: WM and ITM task performance in elderly; format: in vivo, human

SMILES	Working memory task performance in an individual subject (children with ADHD [1])	Frontal midline theta rhythm during task performance vs placebo (healthy adults [3])	Direction of significant (p < .05) change in spectral power (vs. placebo): Oz alpha (healthy adults [3]; Resting EEG Eyes Closed)	Direction of significant (p < .05) change in spectral power (vs. placebo): Pz delta (healthy adults [3]; Resting EEG Eyes Closed)	Direction of significant (p < .05) change in spectral power (vs. placebo): Pz theta (healthy adults [3]; Resting EEG Eyes Closed)	Direction of significant (p < .05) change in spectral power (vs. placebo): Oz alpha (healthy adults [3]; Resting EEG Eyes Open)	Direction of significant (p < .05) change in spectral power (vs. placebo): Pz delta (healthy adults [3]; Resting EEG Eyes Open)	Direction of significant (p < .05) change in spectral power (vs. placebo): Pz theta (healthy adults [3]; Resting EEG Eyes Open)	Direction of significant (p < .05) change in spectral power (vs. placebo): Pz alpha (healthy adults [3]; Task EEG High Load)	Direction of significant (p < .05) change in spectral power (vs. placebo): aFz theta (healthy adults [3]; Task EEG High Load)	Direction of significant (p < .05) change in spectral power (vs. placebo): Pz alpha (healthy adults [3]; Task EEG Low Load)	Direction of significant (p < .05) change in spectral power (vs. placebo): aFz theta (healthy adults [3]; Task EEG Low Load)	Delta band power during resting conditions vs placebo (healthy adults [3])	Theta band power during resting conditions vs placebo (healthy adults [3])	Parietal alpha during task performance vs placebo (healthy adults [3])	NCFC index change from pre-medication baseline (healthy adults [4])	Accuracy in working memory task vs placebo (healthy adults [5])	Reaction time in working memory task vs placebo (healthy adults [5])	Subjective sleepiness relative to placebo (healthy adults [7])	other results
C[C@H](N)Cc1ccccc1 [Dexedrine]	markedly better in the medicated state																			Alpha rhythm, high load vs low load, in an individual subject (children with ADHD [2]; Dexedrine 20 mg): larger difficulty-related differences
CCO [alcohol, ethanol]		increased in the amplitude	▬	▴	▴	▬	▴	▴	▴	▴	▴	▴	increased the power	increased the power	increased in the amplitude	similar, though less extreme, pattern of impairment	no significant main effects	slightly faster in the high load task, and slightly slower in the low load task	significant increase in subjective sleepiness relative to placebo at the 1.5-2 hr, 2.5-3 hr and 3.5-4 hr post-treatment intervals	NCFC sub index most affected (healthy adults [4]; in vivo): relative greater effect on the Neurophysiological Attention sub index; peak BAC ([6]; first post-treatment interval): 0.08; BAC ([6]; last post-treatment interval): 0.03
Cn1c(=O)c2c(ncn2C)n(C)c1=O [caffeine]			▬	▬	▬	▬	▬	▬	▾	▬	▾	▬			significant reduction in alpha band power at parietal sites	little change from baseline	No significant behavioral differences	No significant behavioral differences	did not produce subjective sleepiness ratings significantly different from placebo	Resting EEG data relative to placebo (healthy adults [3]): did not produce significant differences in resting EEG data relative to placebo
CN(C)CCOC(c1ccccc1)c1ccccc1 [diphenhydramine]		reduction in power for the frontal midline theta rhythm in the high load task only											increase in power in the delta	trend towards increasing			less accurately	significantly more slowly		Alpha band power, eyes-closed resting condition vs placebo (healthy adults [3]): attenuation of power in the alpha band in the eyes-closed resting condition; Alpha band power, eyes-open resting condition vs placebo (healthy adults [3]): no significant change in power during the eyes-open resting condition; Slow eye movement activity during resting conditions (healthy adults [3]; discussion): increase in the incidence of slow eye movement activity; Amplitude of posterior P200 in ITM task (healthy elderly subjects [8]): larger after diphenhydramine ingestion than after placebo ingestion; N160 and P350 ERP in WM task (healthy elderly subjects [8]; low and high load tasks): significantly smaller following diphenhydramine ingestion than placebo; Resting EEG delta and theta power (healthy elderly subjects [8]; posterior regions): increase in power in the delta and theta bands over posterior regions; Time of nadir of task performance (healthy adults [5]; post drug, third post-ingestion interval): 2.5 to 3 h; Time of greatest subjective sleepiness (healthy elderly subjects [9]; after ingestion): 2.5 h; Subjective sleepiness vs placebo (healthy elderly subjects [9]; elderly, 50 mg): significantly sleepier; ITM task RT and word recognition accuracy (healthy elderly subjects [10]): did not show significant effects of diphenhydramine; WM task performance (healthy elderly subjects [10]): did not significantly affect task performance
COC(=O)C(c1ccccc1)C1CCCCN1 (stereo not drawn) [methylphenidate]	markedly better in the medicated state																			P300 amplitude in an individual subject (children with ADHD [2]; methylphenidate 10 mg): larger in the medicated condition
